Experimental data from patent US4363816A, “Tricyclic pyrroles, their compositions and their use” (BYK Gulden Lomberg Chemische Fabrik Gesellschaft mit …, priority 1981, dated 1982).
Where two headings read alike, the source gives them in different places.

Assays:
[1] = system: gastric ulcers provoked by a pylorus ligature and acetylsalicylic acid; assay: Antiulcerogenic action (protective action on the stomach), Shay rat: pylorus ligature plus oral acetylsalicylic acid; type: in vivo, rats (female); conditions: for ED50: Rattus norvegicus, po, read-out: Protective action on the stomach, ED50
Procedure: (§1) The effect of the compounds according to the invention on the formation, in rats, of gastric ulcers provoked by a pylorus ligature and 10 mg/kg of acetylsalicylic acid and on the inhibition of gastric secretion in rats is shown in the following table:
(§2) compared with the control group
(§3) TQ = therapeutic quotient LD50 /ED50
(§4) The antiulcerogenic action was tested in accordance with the method using the so-called Shay rat: Rats (female, 180 to 200 g, 4 animals per cage on a high grid) which had been fasted for 24 hours were subjected to ulcer provocation by pylorus ligature (under diethyl ether anaesthesia) and oral administration of 100 mg/10 ml/kg of acetylsalicyclic acid. The substances to be tested are administered orally (10 ml/kg) 1 hour before the pylorus ligature. The wound is closed by means of Michel clamps. 4 hours thereafter, the animals are killed under ether anaesthesia by atlas dislocation, and the stomach is removed. The stomach is opened longitudinally and fixed to a cork tile after the amount of gastric juice secreted (volume) has been determined, the number and size (=diameter) of ulcers present are determined with a stereomicroscope with 10-fold magnification. The product of the degree of severity (according to the following rating scale) and the number of ulcers serves as the individual ulcer index.
(§5) ulcer diameter 0.1-1.4 mm 1
(§6) The reduction in the average ulcer index of each treated group compared with that of the control group (=100%) serves as a measure of the antiulcerogenic effect. The ED50 designates the dose which reduces the average ulcer index by 50%.

gastric secretion = assay: Inhibition of gastric secretion in rats; type: in vivo; conditions: 4 hours after administration of the antiulcerogenic ED50
Procedure: as §1
^(+) % inhibition of the gastric secretion (in %) 4 hours after
administration of the antiulcerogenic ED50
as §4

[2] = Antiulcerogenic action (protective action on the stomach), Shay rat: pylorus ligature plus oral acetylsalicylic acid; type: in vivo, rats (female); conditions: rat, in vivo; LD50 i.v. mice / ED50 p.o. rats; read-out: TQ LD50/ED50 (therapeutic quotient)
Procedure: as §1, §2, §3, §4, §5, §6

[3] = Determination of toxicity (LD50, intravenous, mice); conditions: mouse, in vivo; intravenous administration to mice; observation 7 days; dose at which 50% of the animals die
Procedure: LD50 = dose at which 50% of the animals die
The toxicity investigations are carried out on female NMRI mice (body weight: 23 to 30 g). The animals (5 animals per dose) receive feed and water ad libitum. Various doses of the substances are administered intravenously (injection time: 1 minute). The observation period is 7 days. The LD50 (the dose at which 50% of the animals die) is determined by means of linear regression.

| Compound | ED50 [1] [mg/kg] | antiulcerogenic action, dose/action curve (in words) ([1]; Shay rat, up to 300 mg/kg for compound 1) | Gastric Secretion, % inhibition in rats (gastric secretion) [%] | therapeutic quotient (LD50/ED50) [2] | LD50 at 168 h [3] [mg/kg] | ED50 ([1]; peroral administration to rats 1 hour before pylorus ligature, dose which reduces the ulcer index by 50% compared with the control group) [mg/kg] |
| --- | --- | --- | --- | --- | --- | --- |
| CC1(C)[C@@H](OC(=O)CCC(=O)O)CC[C@]2(C)[C@H]3C(=O)C=C4[C@@H]5C[C@@](C)(C(=O)O)CC[C@]5(C)CC[C@@]4(C)[C@]3(C)CC[C@@H]12 [Serial No. 1, Carbenoxolone, reference compound] | 70 | the dose/action curve is then very severely flattened so that no substantial increase in the antiulcerogenic action can be achieved even at 300 mg/kg | 7 |  |  |  |
| CCCN(CCC)CC(=O)N1c2ccccc2NC(=O)c2c1c(C)cn2C [Serial No. 7, 1,3-Dimethyl-4-di-(n-propyl)aminoacetyl-1,4,9,10-tetrahydropyrrolo[3,2-b][1,5]benzodiazepin-10-one] | 6.5 |  | 10 | 16.9 | 110 |  |
| Cc1cn(C)c2c1N(C(=O)CCN(C)C)c1ccccc1NC2=O [compound 10] | 4.5 |  | 21 | 26.7 | 120 |  |
| CCNCC(=O)N1c2ccccc2NC(=O)c2c1c(C)cn2C [compound 8] | 5.5 |  | 20 | 25.5 | 140 |  |
| Cc1cn(C)c2c1N(C(=O)CN(C)C)c1ccccc1NC2=O [Serial No. 6, 1,3-Dimethyl-4-dimethylaminoacetyl-1,4,9,10-tetrahydropyrrolo[3,2-b][1,5]benzodiazepin-10-one] |  |  | 10 |  |  | 6.5 |
| Cc1cn(C)c2c1N(C(=O)CN1CCN(C)CC1)c1ccccc1NC2=O [compound 2] | 1.4 |  | 25 | 71.4 | 100 |  |
| Cc1cn(C)c2c1N(C(=O)CCN1CCCC1)c1ccccc1NC2=O [compound 9] | 6 |  | 25 | 11.7 | 70 |  |
| CCN(CC)CC(=O)N1c2ccccc2NC(=O)c2c1c(C)cn2C [Serial No. 5, 4-Diethylaminoacetyl-1,3-dimethyl-1,4,9,10-tetrahydropyrrolo[3,2-b][1,5]benzodiazepin-10-one] | 6 |  | 20 | 17.5 | 105 |  |
| Cc1cn(C)c2c1N(C(=O)CN1CCCCC1)c1ccccc1NC2=O [compound 3] | 4.5 |  | 3 | 21.1 | 95 |  |
| Cc1cn(C)c2c1N(C(=O)CN1CCCC1)c1ccccc1NC2=O [compound 4] | 2.2 |  | 0 | 45.5 | 100 |  |
